Measurements: paper PMC8949600, “In Vitro & In Vivo Studies on Identifying and Designing Temporin-1CEh from the Skin Secretion of Rana chensinensis as the Optimised Antibacterial Prototype Drug” (Pharmaceutics, 2022)
≈ marks a conversion by molar mass, not a printed value. Where two headings read alike, the source gives them in different places. Bridge positions count the residues as written; N and C are the ends. Peptide text beside a SMILES is read from it. I, II: the chains in the order shown.

Experiments:
E. coli (ATCC 8739) [1] = assay type: cell-based
Description: (§1) A measure of 5 × 10^5 CFU/mL of bacterial suspension including 2-fold dilution peptides (ranging from 1 µM to 512 µM) was incubated in 96-well plates for 16–20 h at 37 °C. For the positive and negative control, 200 mg/L of final concentration of norfloxacin and 1% DMSO were applied, respectively. […] Subsequently, 10 µL of the solution in each clear well was dropped on a Mueller–Hinton agar (MHA) plate and incubated at 37 °C for 16–20 h. The lowest concentration without colony growth was considered as the MBCs.
(§2) Mueller–Hinton broth (MHB) at pH 6.0 and 8.0 as well as MHB containing 10% of Fetal Bovine Serum (FBS), 150 mM of NaCl, 1 mM of MgCl2 and 4 µM of FeCl3, respectively, were prepared. In particular, the pathogens were diluted by the preprepared mediums to a final concentration of 5 × 10^5 CFU/mL after growing to the logarithmic phase, and other operations followed the MIC assay.

E. faecalis (NCTC 12697) = assay type: cell-based
Description: as §1, §2

MRSA (NCTC 12493) = assay type: cell-based
Description: as §1, §2

[2] = system: S. aureus (ATCC CRM 6538); assay type: cell-based
Description: as §1, §2

[3] = system: P. aeruginosa (ATCC 27853); assay type: cell-based
Description: as §1, §2

[4] = system: K. pneumoniae (ATCC 43816); assay type: cell-based
Description: as §1, §2

[5] = system: S. aureus (ATCC CRM 6538) biofilm; assay type: cell-based
Description: (§3) The anti-biofilm activities were tested on S. aureus and E. coli, as indicated previously. For the positive and negative control, 20 mg/mL of vancomycin and 1% DMSO were applied, respectively, in both assays. In addition, 0.1% Crystal Violet was used as the biofilm colouring agent.

[6] = system: E. coli (ATCC 8739) biofilm; assay type: cell-based
Description: as §3

S. aureus = assay: Galleria mellonella larvae infection model, S. aureus; assay type: in vivo; conditions: at a concentration of 20 mg/kg; G. mellonella larvae
Description: (§4) In this assay, the larvae of the wax moth (Galleria mellonella) were used as the infection model. The larvae (Livefood UK Ltd., Rooks Bridge, UK) were selected between 225 and 275 mg (9 larvae per group in a Petri dish). For the positive and negative controls, 50 mg/kg of vancomycin (25 mg/kg of ampicillin for E. coli) and PBS were employed. Final concentration of S. aureus and E. coli cells injected was 5 × 10^5 and 5 × 10^6 CFU/larva, respectively. The assay was performed as described before and the number of alive larvae was recorded every 12 h.

[7] = Aggregation at high concentration (observation); assay type: physicochemical; conditions: at a high concentration
[8] = system: erythrocytes from defibrinated horse blood; assay: Haemolysis assay; conditions: at 256 μM; horse erythrocytes
From the text: The erythrocytes from defibrinated horse blood (TCS Biosciences Ltd., Buckingham, UK) were used to perform the haemolysis assay, as described previously [27]. Equal volumes of PBS and 2% (v/v) of the non-ionic detergent, Triton X-100 (Sigma–Aldrich, St. Louis, MO, USA) in PBS solution, were used as negative and positive controls, respectively. HC50 was defined as the mean peptide concentration producing 50% haemolysis.

E. coli (ATCC 8739) [9] = assay: Membrane permeability assay (SYTOX GREEN); assay type: cell-based
From the text: (§5) In order to test the permeability percentage of Temporin-1CEh and its analogues against S. aureus and E. coli, the SYTOX-GREEN nucleic acid stain was used in the assay indicated before. Tryptic soy broth (TSB) and Luria–Bertani (LB) broth were used as the media for S. aureus and E. coli, respectively.

[10] = system: S. aureus (ATCC CRM 6538); assay: Membrane permeability assay (SYTOX GREEN); assay type: cell-based
From the text: as §5

E. coli = assay: Galleria mellonella larvae infection model, E. coli; assay type: in vivo; conditions: all tested concentrations; G. mellonella larvae, 5 × 10^6 CFU/larva
Description: as §4

E. coli (ATCC 8739) [11] = conditions: MIC of Temporin-1CEa ref 29; cited from earlier work
From the text: (§6) Table 2 The MICs and MBCs of Temporin-1CEh and its analogues as well as Temporin-1CEa against the S. aureus (ATCC CRM 6538), MRSA (NCTC 12493), E. faecalis (NCTC 12697), E. coli (ATCC 8739), P. aeruginosa (ATCC 27853) and K. pneumonia (ATCC 43816), as well as the MICs of Temporin-1CEa against S. aureus and E. coli. | column: MIC/MBC (μM) / Temporin-1CEa

[12] = system: S. aureus (ATCC CRM 6538); conditions: MIC of Temporin-1CEa ref 29; cited from earlier work
From the text: as §6

[13] = system: erythrocytes from defibrinated horse blood; conditions: cited from earlier work
Description: The calculated HC50 of Temporin-1CEh was 152.6 μM compared to that of Temporin-1CEa which was 160 μM [29]. Several modified strategies were used to optimise their antibacterial activity.

CC[C@H](C)[C@H](NC(=O)[C@H](CCCCNC(=O)[C@H](CCCCN)NC(=O)[C@H](Cc1c[nH]c2ccccc12)NC(=O)[C@@H]1CCCN1C(=O)[C@@H](NC(=O)[C@H](Cc1c[nH]c2ccccc12)NC(=O)[C@H](CCCCN)NC(=O)[C@@H](N)CCCCN)C(C)C)NC(=O)[C@H](CCCCN)NC(=O)[C@H](Cc1c[nH]c2ccccc12)NC(=O)[C@@H]1CCCN1C(=O)[C@@H](NC(=O)[C@H](Cc1c[nH]c2ccccc12)NC(=O)[C@H](CCCCN)NC(=O)[C@@H](N)CCCCN)C(C)C)C(=O)N[C@@H](C)C(=O)N[C@@H](CC(N)=O)C(=O)N[C@H](C(=O)N[C@@H](CC(C)C)C(N)=O)[C@@H](C)CC [Peptide T1CEh-KKPWW2] (I: H-KKWVPWKKIANIL-NH2 / II: H-KKWVPWK; amide I:8-II:C; N-terminus assumed)
MBC (E. coli (ATCC 8739) [1]; ATCC 8739): 2 µM (≈ 5.15 µg/mL) | MIC (E. coli (ATCC 8739) [1]; ATCC 8739): 2 µM (≈ 5.15 µg/mL) | MIC (E. coli (ATCC 8739) [1]; ATCC 8739, pH 6): 2 µM (≈ 5.15 µg/mL) | MIC (E. coli (ATCC 8739) [1]; ATCC 8739, pH 7): 2 µM (≈ 5.15 µg/mL) | MIC (E. coli (ATCC 8739) [1]; ATCC 8739, pH 8): 2 µM (≈ 5.15 µg/mL) | decrease of MIC comparing with that of T1CEh-KKPWW (E. coli (ATCC 8739) [1]; E. coli): twofold | decrease of MIC comparing with that of T1CEh-KKPWW (E. faecalis (NCTC 12697); E. faecalis): four-fold | MBC (E. faecalis (NCTC 12697); NCTC 12697): 64 µM (≈ 165 µg/mL) | MIC (E. faecalis (NCTC 12697); NCTC 12697): 32 µM (≈ 82.4 µg/mL) | MIC (E. faecalis (NCTC 12697); NCTC 12697, pH 6): 128 µM (≈ 330 µg/mL) | MIC (E. faecalis (NCTC 12697); NCTC 12697, pH 7): 32 µM (≈ 82.4 µg/mL) | MIC (E. faecalis (NCTC 12697); NCTC 12697, pH 8): 64 µM (≈ 165 µg/mL) | decrease of MIC comparing with that of T1CEh-KKPWW (MRSA (NCTC 12493); MRSA): four-fold | MBC (MRSA (NCTC 12493); NCTC 12493): 16 µM (≈ 41.2 µg/mL) | MIC (MRSA (NCTC 12493); NCTC 12493): 8 µM (≈ 20.6 µg/mL) | MIC (MRSA (NCTC 12493); NCTC 12493, pH 6): 16 µM (≈ 41.2 µg/mL) | MIC (MRSA (NCTC 12493); NCTC 12493, pH 7): 8 µM (≈ 20.6 µg/mL) | MIC (MRSA (NCTC 12493); NCTC 12493, pH 8): 2 µM (≈ 5.15 µg/mL) | MBC ([2]; ATCC CRM 6538): 8 µM (≈ 20.6 µg/mL) | MIC ([2]; ATCC CRM 6538): 4 µM (≈ 10.3 µg/mL) | MIC ([2]; ATCC CRM 6538, pH 6): 8 µM (≈ 20.6 µg/mL) | MIC ([2]; ATCC CRM 6538, pH 7): 4 µM (≈ 10.3 µg/mL) | MIC ([2]; ATCC CRM 6538, pH 8): 2 µM (≈ 5.15 µg/mL) | MBC ([3]; ATCC 27853): 16 µM (≈ 41.2 µg/mL) | MIC ([3]; ATCC 27853): 8 µM (≈ 20.6 µg/mL) | MIC ([3]; ATCC 27853, pH 6): 32 µM (≈ 82.4 µg/mL) | MIC ([3]; ATCC 27853, pH 7): 8 µM (≈ 20.6 µg/mL) | MIC ([3]; ATCC 27853, pH 8): 8 µM (≈ 20.6 µg/mL) | decrease of MIC comparing with that of T1CEh-KKPWW ([3]; P. aeruginosa): twofold | MBC ([4]; ATCC 43816): 8 µM (≈ 20.6 µg/mL) | MIC ([4]; ATCC 43816): 4 µM (≈ 10.3 µg/mL) | MIC ([4]; ATCC 43816, pH 6): 8 µM (≈ 20.6 µg/mL) | MIC ([4]; ATCC 43816, pH 7): 4 µM (≈ 10.3 µg/mL) | MIC ([4]; ATCC 43816, pH 8): 4 µM (≈ 10.3 µg/mL) | MBEC [5]: > 256 µM | MBIC [5]: 32 µM | MBEC [6]: > 256 µM | MBIC [6]: 8 µM | mortality of S. aureus infected larvae (S. aureus): significantly reduced the mortality | aggregation [7]: aggregation can be found in T1CEh-KKPWW2 at a high concentration, achieving hydrogel | haemolysis rate [8]: 63% | permeability rates compared with that of Temporin-1CEh (E. coli (ATCC 8739) [9]): higher permeability rates | permeability rates compared with that of Temporin-1CEh [10]: higher permeability rates | mortality of E. coli infected larvae (E. coli): reduced the mortality

FVDLKKIANIINSIF-NH2 [Temporin-1CEa]
MIC (E. coli (ATCC 8739) [11]): >100 µM | MIC [12]: 13.1 µM | HC50 [13]: 160 µM
